Reference: ChEMBL document CHEMBL1130402, “Effect of stereochemistry on the clearance mechanism of 111In(III)-labeled D- or L-benzyldiethylenetriaminepentaacetic acid” (J Med Chem, 1997)

Assays:
Rattus norvegicus [1] = species on record: Rattus norvegicus; assay: Kidney uptake in normal Wistar rats at 15 min; type: ADME, organism-based; settings: in vivo, 0.25 h
Rattus norvegicus [2] = species on record: Rattus norvegicus; assay: Kidney uptake in normal Wistar rats at 30 min; type: ADME, organism-based; settings: in vivo, 0.5 h
Rattus norvegicus [3] = species on record: Rattus norvegicus; assay: Kidney uptake in normal Wistar rats at 5 min; type: ADME, organism-based; settings: in vivo
Rattus norvegicus [4] = species on record: Rattus norvegicus; assay: Kidney uptake in normal Wistar rats at 60 min; type: ADME, organism-based; settings: in vivo, 1 h
Rattus norvegicus [5] = species on record: Rattus norvegicus; assay: Ratio of biodistribution in kidney and blood in normal Wistar rats at 15 min after injecting the compound.; type: ADME, organism-based; settings: in vivo, 0.25 h
Rattus norvegicus [6] = species on record: Rattus norvegicus; assay: Ratio of biodistribution in kidney and blood in normal Wistar rats at 30 min after injecting the compound; type: ADME, organism-based; settings: in vivo, 0.5 h
Rattus norvegicus [7] = species on record: Rattus norvegicus; assay: Ratio of biodistribution in kidney and blood in normal Wistar rats at 5 min after injecting the compound.; type: ADME, organism-based; settings: in vivo
Rattus norvegicus [8] = species on record: Rattus norvegicus; assay: Ratio of biodistribution in kidney and blood in normal Wistar rats at 60 min after injecting the compound; type: ADME, organism-based; settings: in vivo, 1 h
Rattus norvegicus [9] = species on record: Rattus norvegicus; assay: Ratio of biodistribution in liver and blood in normal Wistar rats at 15 min. after injecting the compound; type: ADME, organism-based; settings: in vivo, 0.25 h
Rattus norvegicus [10] = species on record: Rattus norvegicus; assay: Ratio of biodistribution in liver and blood in normal Wistar rats at 30 min. after injecting the compound; type: ADME, organism-based; settings: in vivo, 0.5 h
Rattus norvegicus [11] = species on record: Rattus norvegicus; assay: Ratio of biodistribution in liver and blood in normal Wistar rats at 5 min. after injecting the compound; type: ADME, organism-based; settings: in vivo
Rattus norvegicus [12] = species on record: Rattus norvegicus; assay: Ratio of biodistribution in liver and blood in normal Wistar rats at 60 min. after injecting the compound; type: ADME, organism-based; settings: in vivo, 1 h
Rattus norvegicus [13] = species on record: Rattus norvegicus; assay: The biodistribution in blood in normal Wistar rats at 15 min; type: ADME, organism-based; settings: in vivo, 0.25 h
Rattus norvegicus [14] = species on record: Rattus norvegicus; assay: The biodistribution in blood in normal Wistar rats at 30 min; type: ADME, organism-based; settings: in vivo, 0.5 h
Rattus norvegicus [15] = species on record: Rattus norvegicus; assay: The biodistribution in blood in normal Wistar rats at 5 min; type: ADME, organism-based; settings: in vivo
Rattus norvegicus [16] = species on record: Rattus norvegicus; assay: The biodistribution in blood in normal Wistar rats at 60 min; type: ADME, organism-based; settings: in vivo, 1 h
Rattus norvegicus [17] = species on record: Rattus norvegicus; assay: The biodistribution in bone in normal Wistar rats at 15 min; type: ADME, organism-based, Bone element; settings: in vivo, 0.25 h
Rattus norvegicus [18] = species on record: Rattus norvegicus; assay: The biodistribution in bone in normal Wistar rats at 30 min; type: ADME, organism-based, Bone element; settings: in vivo, 0.5 h
Rattus norvegicus [19] = species on record: Rattus norvegicus; assay: The biodistribution in bone in normal Wistar rats at 5 min; type: ADME, organism-based, Bone element; settings: in vivo
Rattus norvegicus [20] = species on record: Rattus norvegicus; assay: The biodistribution in bone in normal Wistar rats at 60 min; type: ADME, organism-based, Bone element; settings: in vivo, 1 h
Rattus norvegicus [21] = species on record: Rattus norvegicus; assay: The biodistribution in liver in normal Wistar rats at 15 min; type: ADME, organism-based; settings: in vivo, 0.25 h
Rattus norvegicus [22] = species on record: Rattus norvegicus; assay: The biodistribution in liver in normal Wistar rats at 5 min; type: ADME, organism-based; settings: in vivo
Rattus norvegicus [23] = species on record: Rattus norvegicus; assay: The biodistribution in liver in normal Wistar rats at 60 min; type: ADME, organism-based; settings: in vivo, 1 h
[24] = Compound was tested for % clearance through the faeces in Wistar rats; type: ADME, organism-based; settings: rat, read-out: Feces
[25] = Compound was tested for % clearance through the faeces in jaundice Wistar rats; type: ADME, organism-based; settings: rat, read-out: Feces
[26] = Compound was tested for % clearance through the urine in jaundiced (TR-) Wistar rats; type: ADME, organism-based; settings: rat
[27] = Compound was tested for % clearance through the urine in normal rat; type: ADME, organism-based
Rattus norvegicus [28] = species on record: Rattus norvegicus; assay: The biodistribution in liver in normal Wistar rats at 30 min; type: ADME, organism-based; settings: in vivo, 0.5 h
Rattus norvegicus [29] = species on record: Rattus norvegicus; assay: Ratio of biodistribution in kidney and blood in normal Wistar rats at 5 min after injecting the compound; type: ADME, organism-based; settings: in vivo
[30] = Compound was tested for % clearance through the faeces in jaundiced (TR-) Wistar rats; type: ADME, organism-based; settings: rat, read-out: Feces
[31] = Compound was tested for % clearance through the faeces in normal Wistar rats; type: ADME, organism-based; settings: rat, read-out: Feces
Rattus norvegicus [32] = species on record: Rattus norvegicus; assay: Ratio of biodistribution in kidney and blood in normal Wistar rats at 15 min after injecting the compound; type: ADME, organism-based; settings: in vivo, 0.25 h

O=C(O)CN(CCN(CCN(CC(=O)O)CC(=O)O)[C@H](Cc1ccccc1)C(=O)O)CC(=O)O showed an ID/organ (Rattus norvegicus [1]) of 1.63%, an ID/organ (Rattus norvegicus [2]) of 0.92% and an ID/organ (Rattus norvegicus [3]) of 3.45%. It also gave an ID/organ (Rattus norvegicus [4]) of 0.57%, an ID/organ (Rattus norvegicus [5]) of 0.36 and an ID/organ (Rattus norvegicus [6]) of 0.46. The ID/organ (Rattus norvegicus [7]) was 0.33, the ID/organ (Rattus norvegicus [8]) was 0.82 and the ID/organ (Rattus norvegicus [9]) was 1.69. For the same compound, the ID/organ (Rattus norvegicus [10]) was 1.55, the ID/organ (Rattus norvegicus [11]) was 1.46 and the ID/organ (Rattus norvegicus [12]) was 1.6. The ID/organ (Rattus norvegicus [13]) was 4.67%, the ID/organ (Rattus norvegicus [14]) was 2.03% and the ID/organ (Rattus norvegicus [15]) was 10.7%. For the same compound, the ID/organ (Rattus norvegicus [16]) was 0.71%, the ID/organ (Rattus norvegicus [17]) was 3.81% and the ID/organ (Rattus norvegicus [18]) was 2.31%. For the same compound, the ID/organ (Rattus norvegicus [19]) was 3.28%, the ID/organ (Rattus norvegicus [20]) was 2.4% and the ID/organ (Rattus norvegicus [21]) was 7.63%. It also gave an ID/organ (Rattus norvegicus [22]) of 15.6%, an ID/organ (Rattus norvegicus [23]) of 1.1% and a dose excreted [24] of 42.8%. For the same compound, the dose excreted [25] was 10.6%, the dose excreted [26] was 80.4% and the dose excreted [27] was 51.9%. It also gave an ID/organ (Rattus norvegicus [28]) of 3.15%.

O=C(O)CN(CCN(CCN(CC(=O)O)CC(=O)O)[C@@H](Cc1ccccc1)C(=O)O)CC(=O)O showed an ID/organ (Rattus norvegicus [1]) of 3.04%, an ID/organ (Rattus norvegicus [2]) of 1.96% and an ID/organ (Rattus norvegicus [3]) of 4.74%. For the same compound, the ID/organ (Rattus norvegicus [4]) was 1.1%, the ID/organ (Rattus norvegicus [6]) was 0.74 and the ID/organ (Rattus norvegicus [29]) was 0.37. The ID/organ (Rattus norvegicus [8]) was 1.3, the ID/organ (Rattus norvegicus [9]) was 1.1 and the ID/organ (Rattus norvegicus [10]) was 0.9. It also gave an ID/organ (Rattus norvegicus [11]) of 1.04, an ID/organ (Rattus norvegicus [12]) of 0.99 and an ID/organ (Rattus norvegicus [13]) of 6.36%. It also gave an ID/organ (Rattus norvegicus [14]) of 2.66%, an ID/organ (Rattus norvegicus [15]) of 12.7% and an ID/organ (Rattus norvegicus [16]) of 0.86%. For the same compound, the ID/organ (Rattus norvegicus [17]) was 3.76%, the ID/organ (Rattus norvegicus [18]) was 2.17% and the ID/organ (Rattus norvegicus [19]) was 4.59%. For the same compound, the ID/organ (Rattus norvegicus [20]) was 2.43%, the ID/organ (Rattus norvegicus [21]) was 6.84% and the ID/organ (Rattus norvegicus [22]) was 13.2%. The ID/organ (Rattus norvegicus [23]) was 0.82%, the dose excreted [30] was 3.3% and the dose excreted [31] was 29.2%. It also gave a dose excreted [26] of 85%, a dose excreted [27] of 62% and an ID/organ (Rattus norvegicus [32]) of 0.48. The ID/organ (Rattus norvegicus [28]) was 2.37%.
